In BindingDB's records for doi:10.1021/acs.jmedchem.5b01148 (Queensland University of Technology, 2015):
Bridge positions count the residues as written; N and C are the ends. Peptide text beside a SMILES is read from it.

Experiment: Inhibition of matriptase (unknown origin) using Ac-RQFRpNA substrate by spectrophotometry method

Compound | Ki [nM]
CC[C@H](C)[C@@H]1NC(=O)[C@@H]2CCCN2C(=O)[C@@H]2CCCN2C(=O)[C@H]([C@@H](C)CC)NC(=O)[C@H](CO)NC(=O)[C@H](CCCNC(=N)N)NC(=O)[C@H]([C@@H](C)O)NC(=O)[C@@H]2CSSC[C@H](NC1=O)C(=O)N[C@@H](Cc1ccccc1)C(=O)N1CCC[C@H]1C(=O)N[C@H](C(=O)O)CC(=O)NCC(=O)N[C@@H](CCCNC(=N)N)C(=O)N2 (GRCTRSIPPICFPD-OH; disulfide 3-11; lactam N-14) | 546
CC[C@H](C)[C@@H]1NC(=O)[C@@H]2CCCN2C(=O)[C@@H]2CCCN2C(=O)[C@H](Cc2ccc(O)cc2)NC(=O)[C@H](CO)NC(=O)[C@H](CCCNC(=N)N)NC(=O)[C@H]([C@@H](C)O)NC(=O)[C@@H]2CSSC[C@H](NC1=O)C(=O)N[C@@H](Cc1ccccc1)C(=O)N1CCC[C@H]1C(=O)N[C@H](C(=O)O)CC(=O)NCC(=O)N[C@@H](CCCNC(=N)N)C(=O)N2 (GRCTRSYPPICFPD-OH; disulfide 3-11; lactam N-14) | > 50000
C[C@@H](O)[C@@H]1NC(=O)[C@@H](NC(=O)[C@H](CCCNC(=N)N)NC(=O)CN)CSSC[C@@H](C(=O)N[C@@H](Cc2cnc[nH]2)C(=O)O)NC(=O)[C@H](CCCNC(=N)N)NC(=O)[C@@H]2CCCN2C(=O)[C@@H]2CCCN2C(=O)[C@H](CC(=O)O)NC(=O)[C@H](CO)NC(=O)[C@H](CCCCN)NC1=O (H-GRCTKSDPPRCH-OH; disulfide 3-11) | 87
CC[C@H](C)[C@@H]1NC(=O)[C@H](CO)NC(=O)[C@H](CCCCN)NC(=O)[C@H]([C@@H](C)O)NC(=O)[C@@H](NC(=O)[C@H](CCCNC(=N)N)NC(=O)CN)CSSC[C@@H](C(=O)N[C@@H](Cc2cnc[nH]2)C(=O)O)NC(=O)[C@H](CCCNC(=N)N)NC(=O)[C@@H]2CCCN2C(=O)[C@@H]2CCCN2C1=O (H-GRCTKSIPPRCH-OH; disulfide 3-11) | 82
